# Laboratory results as given in paper PMC5844530, “Fosmetpantotenate (RE-024), a phosphopantothenate replacement therapy for pantothenate kinase-associated neurodegeneration: Mechanism of action and efficacy in nonclinical models” (PLoS ONE, 2018).
# Several values for one entry are separate records, joined by “and”; a condition that tells them apart may be missing. Identical values can stand only once.
# Tests used:
# [1] = Pharmacokinetics in whole blood, Sprague-Dawley rats; details: male Sprague-Dawley rats, blood, BQL <1.26 nM
# [2] = Pharmacokinetics in whole blood, cynomolgus monkeys; details: blood; for AUC: single PO fosmetpantotenate 300 mg/kg, mean (individual values), N = 2, analyte = label; for Fosmetpantotenate Mean Conc. / Fosmetpantotenate blood concentration, Cyno #1 / Fosmetpantotenate blood concentration, Cyno #2 / concentration at 0.083 h / concentration at 0.167 h / concentration at 0.333 h / concentration at 0.5 h / concentration at 1 h / concentration at 2 h / concentration at 4 h: fosmetpantotenate 300 mg/kg oral; for concentration at 0.083 h / concentration at 0.167 h / concentration at 0.333 h / concentration at 0.5 h / concentration at 1 h / concentration at 2 h / concentration at 4 h: male
# Experimental: The whole blood samples (0.5 mL) were collected into syringes that were prefilled with 2.5 mL of ice-cold 0.1% formic acid in acetonitrile. The volume ratio of the whole blood to 0.1% formic acid in acetonitrile was 1/5 (v/v). Samples were frozen (-70°C) until analyzed by LC-MS/MS.
# Standard curves and quality control (QC) samples were prepared fresh on the day of analysis by serial dilution of the standard mixture in quenched whole blood (1 part of blood to 5 parts of 0.1% formic acid in acetonitrile) and centrifuged. […] The frozen study samples were thawed in an ice/water bath and centrifuged. Supernatant (50 μL) from standards, QC samples, and study samples was transferred to a 96-well plate and dried completely under nitrogen. The dried residues were reconstituted with 100 μL of 0.1% formic acid in water containing internal standard (5 ng/mL of ^15N/^13C3-RE-024-02) and analyzed by LC-MS/MS.
# LC-MS/MS analysis for blood pharmacokinetic samples: Samples were analyzed using an Agilent 1100 binary pump (Agilent Technologies, Santa Clara, CA, USA), connected to an AB Sciex API 6500 mass spectrometer (SCIEX, Framingham, MA, USA). An electrospray ionization source was used, scanning in the positive mode. […] The chromatography column was a Varian Metasil AQ 120–5 C18 column, 5 μm, 50 x 2.00 mm (Part No. A0530050X020) at ambient temperature, with a 0.5 mL/min flow rate and a 20 μL injection volume. Mobile phase (A) consisted of 0.1% formic acid in water; while mobile phase (B) consisted of 0.1% formic acid in acetonitrile:water (9:1, v/v).
# Quantitation of in vivo samples: Peak areas were integrated using Analyst software (AB Sciex, Concord, Ontario, Canada). […] Calibration standards (at a minimum 7 per curve) were fit by linear regression with (1/x^2) weighting. QC samples were used (triplicate) at 3 concentrations for all tandem mass spectrometry (MS/MS) runs.
# Pharmacokinetic calculations: PK analysis was performed using Phoenix WinNonlin®, Build 6.3.0.395 (Certara, Princeton, NJ, USA) using a non-compartmental model (PO dose = model 200 for extravascular dosing). […] Post-dose concentrations below the limit of quantitation (BLQ) were omitted from calculation.
# [3] = male cynomolgus monkeys, 0.033 hr
# [4] = cynomolgus monkey, in vivo, 300 mg/kg, Fosmetpantotenate Mean Conc., male cynomolgus monkeys
# [5] = cynomolgus monkey, in vivo, 300 mg/kg, Fosmetpantotenate blood concentration, Cyno #1, male cynomolgus monkeys
# [6] = cynomolgus monkey, in vivo, 300 mg/kg, Fosmetpantotenate blood concentration, Cyno #2, male cynomolgus monkeys
smiles,measurement,setting,value
COC(=O)CCNC(=O)[C@H](O)C(C)(C)COP(=O)(N[C@@H](C)C(=O)OC)Oc1ccccc1 (mixture of isomers) [Fosmetpantotenate],Fosmetpantotenate Conc.,"[1]; fosmetpantotenate 100 mg/kg oral, 4 hr, individual animals",BQL
same,Fosmetpantotenate Conc.,"[1]; fosmetpantotenate 100 mg/kg oral, 8 hr, individual animals",BQL
same,Fosmetpantotenate Mean Conc.,"[1]; fosmetpantotenate 100 mg/kg oral, 8 hr, mean",BQL
same,Fosmetpantotenate Conc.,"[1]; fosmetpantotenate 300 mg/kg oral, 0.033 hr, individual animals",4.15 nM and BQL
same,Fosmetpantotenate Conc.,"[1]; fosmetpantotenate 300 mg/kg oral, 0.083 hr, individual animals",BQL
same,Fosmetpantotenate Mean Conc.,"[1]; fosmetpantotenate 300 mg/kg oral, 0.083 hr, mean",BQL
same,Fosmetpantotenate Conc.,"[1]; fosmetpantotenate 300 mg/kg oral, 0.167 hr, individual animals",8.83 nM and 22.89 nM and 22.51 nM
same,Fosmetpantotenate Conc.,"[1]; fosmetpantotenate 300 mg/kg oral, 0.33 hr, individual animals",BQL and 64.88 nM and 7.67 nM
same,Fosmetpantotenate Conc.,"[1]; fosmetpantotenate 300 mg/kg oral, 0.5 hr, individual animals",2.28 nM and BQL and 577.94 nM
same,Fosmetpantotenate Conc.,"[1]; fosmetpantotenate 300 mg/kg oral, 1 hr, individual animals",BQL
same,Fosmetpantotenate Conc.,"[1]; fosmetpantotenate 300 mg/kg oral, 2 hr, individual animals",BQL
same,Fosmetpantotenate Conc.,"[1]; fosmetpantotenate 300 mg/kg oral, 4 hr, individual animals",BQL
same,Fosmetpantotenate Conc.,"[1]; fosmetpantotenate 300 mg/kg oral, 8 hr, individual animals",BQL
same,Fosmetpantotenate Mean Conc.,"[1]; fosmetpantotenate 300 mg/kg oral, 8 hr, mean",BQL
same,Fosmetpantotenate Conc.,"[1]; fosmetpantotenate 700 mg/kg oral, 0.033 hr, individual animals",2149.90(a) nM and BQL and 114.07 nM
same,Fosmetpantotenate Conc.,"[1]; fosmetpantotenate 700 mg/kg oral, 0.083 hr, individual animals",518.51 nM and BQL and 1.62 nM
same,Fosmetpantotenate Conc.,"[1]; fosmetpantotenate 700 mg/kg oral, 0.167 hr, individual animals",28.96 nM and 23269.54(a) nM and 247.87 nM
same,Fosmetpantotenate Conc.,"[1]; fosmetpantotenate 700 mg/kg oral, 0.33 hr, individual animals",2541.94 nM and 1277.3 nM and 54 nM
same,Fosmetpantotenate Conc.,"[1]; fosmetpantotenate 700 mg/kg oral, 0.5 hr, individual animals",509.65 nM and 72.84 nM and 84.61 nM
same,Fosmetpantotenate Conc.,"[1]; fosmetpantotenate 700 mg/kg oral, 1 hr, individual animals",73.35 nM and 63.86 nM and 214.99 nM
same,Fosmetpantotenate Conc.,"[1]; fosmetpantotenate 700 mg/kg oral, 2 hr, individual animals",BQL and 1035.75 nM
same,Fosmetpantotenate Conc.,"[1]; fosmetpantotenate 700 mg/kg oral, 4 hr, individual animals",419.86 nM and BQL and 32.12 nM
same,Fosmetpantotenate Conc.,"[1]; fosmetpantotenate 700 mg/kg oral, 8 hr, individual animals",BQL
same,Fosmetpantotenate Mean Conc.,"[1]; fosmetpantotenate 700 mg/kg oral, 8 hr, mean",BQL
same,concentration at 0.5 h,"[1]; male, Sprague-Dawley, rat, in vivo, 100 mg/kg, Fosmetpantotenate Conc., fosmetpantotenate 100 mg/kg oral, 0.5 hr, individual animals",3.31 nM
same,concentration at 4 h,"[1]; male, Sprague-Dawley, rat, in vivo, 100 mg/kg, Fosmetpantotenate Conc., fosmetpantotenate 100 mg/kg oral, 4 hr, individual animals",2.04 nM
same,concentration at 0.5 h,"[1]; male, Sprague-Dawley, rat, in vivo, 100 mg/kg, Fosmetpantotenate Mean Conc., fosmetpantotenate 100 mg/kg oral, 0.5 hr, mean",3.31 nM
same,concentration at 4 h,"[1]; male, Sprague-Dawley, rat, in vivo, 100 mg/kg, Fosmetpantotenate Mean Conc., fosmetpantotenate 100 mg/kg oral, 4 hr, mean",2.04 nM
same,concentration at 0.033 h,"[1]; male, Sprague-Dawley, rat, in vivo, 300 mg/kg, Fosmetpantotenate Conc., fosmetpantotenate 300 mg/kg oral, 0.033 hr, individual animals",3.9 nM
same,concentration at 1 h,"[1]; male, Sprague-Dawley, rat, in vivo, 300 mg/kg, Fosmetpantotenate Conc., fosmetpantotenate 300 mg/kg oral, 1 hr, individual animals",6.98 nM
same,concentration at 2 h,"[1]; male, Sprague-Dawley, rat, in vivo, 300 mg/kg, Fosmetpantotenate Conc., fosmetpantotenate 300 mg/kg oral, 2 hr, individual animals",3.41 nM
same,concentration at 4 h,"[1]; male, Sprague-Dawley, rat, in vivo, 300 mg/kg, Fosmetpantotenate Conc., fosmetpantotenate 300 mg/kg oral, 4 hr, individual animals",3.69 nM
same,concentration at 0.033 h,"[1]; male, Sprague-Dawley, rat, in vivo, 300 mg/kg, Fosmetpantotenate Mean Conc., fosmetpantotenate 300 mg/kg oral, 0.033 hr, mean",4.03 nM
same,concentration at 0.167 h,"[1]; male, Sprague-Dawley, rat, in vivo, 300 mg/kg, Fosmetpantotenate Mean Conc., fosmetpantotenate 300 mg/kg oral, 0.167 hr, mean",18.1 nM
same,concentration at 0.33 h,"[1]; male, Sprague-Dawley, rat, in vivo, 300 mg/kg, Fosmetpantotenate Mean Conc., fosmetpantotenate 300 mg/kg oral, 0.33 hr, mean",36.3 nM
same,concentration at 0.5 h,"[1]; male, Sprague-Dawley, rat, in vivo, 300 mg/kg, Fosmetpantotenate Mean Conc., fosmetpantotenate 300 mg/kg oral, 0.5 hr, mean",290 nM
same,concentration at 1 h,"[1]; male, Sprague-Dawley, rat, in vivo, 300 mg/kg, Fosmetpantotenate Mean Conc., fosmetpantotenate 300 mg/kg oral, 1 hr, mean",6.98 nM
same,concentration at 2 h,"[1]; male, Sprague-Dawley, rat, in vivo, 300 mg/kg, Fosmetpantotenate Mean Conc., fosmetpantotenate 300 mg/kg oral, 2 hr, mean",3.41 nM
same,concentration at 4 h,"[1]; male, Sprague-Dawley, rat, in vivo, 300 mg/kg, Fosmetpantotenate Mean Conc., fosmetpantotenate 300 mg/kg oral, 4 hr, mean",3.69 nM
same,concentration at 2 hr,"[1]; male, Sprague-Dawley, rat, in vivo, 700 mg/kg, Fosmetpantotenate Conc., fosmetpantotenate 700 mg/kg oral, 2 hr, individual animals",663 nM
same,concentration at 0.033 h,"[1]; male, Sprague-Dawley, rat, in vivo, 700 mg/kg, Fosmetpantotenate Mean Conc., fosmetpantotenate 700 mg/kg oral, 0.033 hr, mean",114 nM
same,concentration at 0.083 h,"[1]; male, Sprague-Dawley, rat, in vivo, 700 mg/kg, Fosmetpantotenate Mean Conc., fosmetpantotenate 700 mg/kg oral, 0.083 hr, mean",260 nM
same,concentration at 0.167 hr,"[1]; male, Sprague-Dawley, rat, in vivo, 700 mg/kg, Fosmetpantotenate Mean Conc., fosmetpantotenate 700 mg/kg oral, 0.167 hr, mean",138 nM
same,concentration at 0.33 hr,"[1]; male, Sprague-Dawley, rat, in vivo, 700 mg/kg, Fosmetpantotenate Mean Conc., fosmetpantotenate 700 mg/kg oral, 0.33 hr, mean",1290 nM
same,concentration at 0.5 hr,"[1]; male, Sprague-Dawley, rat, in vivo, 700 mg/kg, Fosmetpantotenate Mean Conc., fosmetpantotenate 700 mg/kg oral, 0.5 hr, mean",222 nM
same,concentration at 1 hr,"[1]; male, Sprague-Dawley, rat, in vivo, 700 mg/kg, Fosmetpantotenate Mean Conc., fosmetpantotenate 700 mg/kg oral, 1 hr, mean",117 nM
same,concentration at 2 hr,"[1]; male, Sprague-Dawley, rat, in vivo, 700 mg/kg, Fosmetpantotenate Mean Conc., fosmetpantotenate 700 mg/kg oral, 2 hr, mean",849 nM
same,concentration at 4 h,"[1]; male, Sprague-Dawley, rat, in vivo, 700 mg/kg, Fosmetpantotenate Mean Conc., fosmetpantotenate 700 mg/kg oral, 4 hr, mean",226 nM
same,AUC,[2],"34,400 (13000, 55800) nM*h"
same,AUC,"[2]; cynomolgus monkey, in vivo, po, 300 mg/kg, AUC",34 µM·h
same,Fosmetpantotenate Mean Conc.,"[2]; male cynomolgus monkeys, 0 hr",BQL
same,"Fosmetpantotenate blood concentration, Cyno #1","[2]; male cynomolgus monkeys, 0 hr",BQL
same,"Fosmetpantotenate blood concentration, Cyno #2","[2]; male cynomolgus monkeys, 0 hr",BQL
same,Fosmetpantotenate Mean Conc.,[2]; [3],BQL
same,"Fosmetpantotenate blood concentration, Cyno #1",[2]; [3],BQL
same,"Fosmetpantotenate blood concentration, Cyno #2",[2]; [3],BQL
same,Fosmetpantotenate Mean Conc.,"[2]; male cynomolgus monkeys, 8 hr",BQL
same,"Fosmetpantotenate blood concentration, Cyno #1","[2]; male cynomolgus monkeys, 8 hr",BQL
same,"Fosmetpantotenate blood concentration, Cyno #2","[2]; male cynomolgus monkeys, 8 hr",BQL
same,concentration at 0.083 h,[2]; [4],197 nM
same,concentration at 0.167 h,[2]; [4],906 nM
same,concentration at 0.333 h,[2]; [4],550 nM
same,concentration at 0.5 h,[2]; [4],376 nM
same,concentration at 1 h,[2]; [4],18700 nM
same,concentration at 2 h,[2]; [4],13200 nM
same,concentration at 4 h,[2]; [4],249 nM
same,concentration at 0.083 h,[2]; [5],41.9 nM
same,concentration at 0.167 h,[2]; [5],93.8 nM
same,concentration at 0.333 h,[2]; [5],128 nM
same,concentration at 0.5 h,[2]; [5],211 nM
same,concentration at 1 h,[2]; [5],9950 nM
same,concentration at 2 h,[2]; [5],3460 nM
same,concentration at 4 h,[2]; [5],231 nM
same,concentration at 0.083 h,[2]; [6],351 nM
same,concentration at 0.167 h,[2]; [6],1720 nM
same,concentration at 0.333 h,[2]; [6],972 nM
same,concentration at 0.5 h,[2]; [6],541 nM
same,concentration at 1 h,[2]; [6],27400 nM
same,concentration at 2 h,[2]; [6],22900 nM
same,concentration at 4 h,[2]; [6],267 nM
